Measured values taken from the CheMixHub viscosity set.

Experiment: xn = mol fraction of the nth substance listed

CC=CC(=O)O + CCOC(C)=O
viscosity [mPa·s], 101 kPa
Conditions	x1 = 0.0495	x1 = 0.0995	x1 = 0.1509	x1 = 0.1971	x1 = 0.2463	x1 = 0.2605
298.15 K	0.4663	0.5094	0.5447	0.5907	0.6329	0.6467
303.15 K	0.4417	0.4788	0.5181	0.5583	0.5921	0.6093
313.15 K	0.4005	0.4309	0.4587	0.494	0.5254	0.5496
323.15 K	0.361	0.3895	0.413	0.4469	0.4704	0.4917

COCCOCCOC + CCOC(C)=O
viscosity [mPa·s], 101.33 kPa
Conditions	x1 = 0.1016	x1 = 0.2005	x1 = 0.3016	x1 = 0.4007	x1 = 0.4999	x1 = 0.6005	x1 = 0.6994	x1 = 0.8013	x1 = 0.8999
298.15 K	0.477	0.527	0.579	0.633	0.69	0.748	0.815	0.867	0.92
303.15 K	0.451	0.497	0.546	0.594	0.645	0.698	0.75	0.807	0.854
308.15 K	0.428	0.469	0.513	0.558	0.604	0.653	0.706	0.748	0.794
313.15 K	0.406	0.445	0.485	0.526	0.569	0.612	0.659	0.7	0.74
318.15 K	0.385	0.421	0.459	0.496	0.535	0.575	0.616	0.653	0.689

ClC(Cl)C(Cl)Cl + CCOC(C)=O
303.15 K, 101.3 kPa
Conditions	viscosity [mPa·s]
x2 = 0.15	1.358
x2 = 0.2009	1.306
x2 = 0.3141	1.18
x2 = 0.3963	1.08
x2 = 0.4968	0.9507
x2 = 0.5996	0.8225
x2 = 0.7128	0.6857
x2 = 0.8056	0.5773
x2 = 0.9246	0.4625

CCCCCCN + CCOCCO
308.15 K, 101 kPa
Conditions	viscosity [mPa·s]
x2 = 0.1321	0.7283
x2 = 0.255	0.8766
x2 = 0.3698	1.026
x2 = 0.4772	1.172
x2 = 0.5779	1.305
x2 = 0.6726	1.426
x2 = 0.7616	1.469
x2 = 0.8456	1.457
x2 = 0.9249	1.445

Oc1ccccc1 + CN(C)c1ccccc1
viscosity [mPa·s], 101 kPa
Conditions	293.15 K	302.95 K	313.35 K
x1 = 0.0998	–	1.351	1.159
x1 = 0.114	1.684	–	–
x1 = 0.2041	–	1.629	1.354
x1 = 0.2122	2.045	–	–
x1 = 0.2884	2.415	–	–
x1 = 0.2958	–	1.936	1.57
x1 = 0.385	–	2.315	1.84
x1 = 0.3889	3.085	–	–
x1 = 0.4659	3.77	–	–
x1 = 0.477	–	2.83	2.185
x1 = 0.5458	4.7	–	–
x1 = 0.5549	–	3.33	2.51
x1 = 0.6187	5.64	–	–
x1 = 0.6224	–	3.93	2.855
x1 = 0.6851	6.75	–	–
x1 = 0.6955	–	4.705	3.34
x1 = 0.75	8.01	–	–
x1 = 0.7591	–	5.325	3.715
x1 = 0.8215	9.4	–	–
x1 = 0.8274	–	6.025	4.15
x1 = 0.8827	10.3	–	–
x1 = 0.8884	–	6.48	4.4
x1 = 0.9428	10.87	–	–
x1 = 0.9463	–	6.86	4.59

CC[P+](c1ccccc1)(c1ccccc1)c1ccccc1.[Br-] + CN(CCO)CCO
viscosity [mPa·s], 100 kPa
Conditions	293.15 K	303.15 K	313.15 K	323.15 K
x1 = 0.05673	152.7	81.77	47.16	29.08
x1 = 0.08776	192.3	100.3	56.67	34.34
x1 = 0.1208	238	121	66.81	39.76

ClC(Cl)C(Cl)Cl + CNc1ccccc1
303 K, 101.33 kPa
Conditions	viscosity [mPa·s]
x2 = 0.1012	1.439
x2 = 0.1991	1.49
x2 = 0.3016	1.541
x2 = 0.4007	1.59
x2 = 0.5004	1.633
x2 = 0.6007	1.66
x2 = 0.7017	1.686
x2 = 0.7992	1.707
x2 = 0.9013	1.73
